# Like-named read-outs stand apart in the source and are kept apart here.
# Experiments:
# HL‐60 cells = experiment: Cell growth assay (MTS), HL-60 cells; assay type: cell-based; details: mean ± SE
# Procedure: (§1) HL‐60 cells were obtained from ATCC® (CCL‐240), whereas its variant HL‐60R was selected for MDR by exposure to gradually increasing concentrations of doxorubicin. MCF‐7 cells were obtained from ATCC® (HTB‐22). The nontumorigenic cell lines hTERT‐RPE‐1 (ATCC, CRL‐4010) and 1‐7HB2 (ECACC 10081201‐Cancer Research Technology) was kindly provided by Prof. Patrizia Cancemi and Prof. Giulio Ghersi (STEBICEF Department, University of Palermo, Italy), respectively. Cells were cultured in a humidified atmosphere at 37°C in 5% CO2. After obtaining the cells, the first passage carried out was assigned passage number 1. Cells with a narrow range of passage number […] were routinely tested for Mycoplasma contamination and were used for all experiments. HL‐60 and HL‐60R cells were cultured in Roswell Park Memorial Institute (RPMI) 1640, while MCF‐7, hTERT‐RPE‐1, and 1‐7HB‐2 cells were cultured in Dulbecco's Modified Eagle Medium (DMEM) (HyClone Europe Ltd.) low glucose, in particular only for 1‐7HB‐2 cells supplemented with hydrocortisone (5 μg/ml) and insulin (10 μg/ml). All media were supplemented with 10% heat‐inactivated fetal calf serum, 2 mM L‐glutamine, 100 U/ml penicillin, and 100 μg/ml streptomycin (all reagents were from EuroClone S.p.A.; GE Healthcare Life Sciences).
# (§2) Cells were seeded at 5 × 10^3 cells/well onto 96 well plates and incubated overnight at 37°C. At time 0, the medium was replaced with fresh complete medium supplemented with the [1,2]oxazolo[5,4‐e]isoindoles at large concentrations range. Following 72 h of treatment, 15 µl commercial solution obtained from Promega Corp. containing 3‐(4,5‐dimethylthiazol‐2‐yl)−5‐(3‐carboxymethoxyphenyl)−2‐(4‐sulphophenyl)−2H‐tetrazolium (MTS) and phenazine ethosulfate was added. The plates were incubated in a humidified atmosphere at 37°C in 5% CO2 for 2 h, and the bioreduction of MTS dye was evaluated by measuring the absorbance of each well at 490 nm using a microplate absorbance reader (iMark Microplate Reader; Bio‐Rad Laboratories, Inc.). Cell growth inhibition was expressed as a percentage of the absorbance of the control cells. Data were expressed as mean ± standard error (SE) of at least three different experiments performed in triplicate.
# MCF‐7 cells = experiment: Cell growth assay (MTS), MCF-7 breast cancer cells; assay type: cell-based; details: the maximum concentration used in the MTS assay is reported
# Procedure: as §1, §2
# hTERT‐RPE‐1 cells = experiment: Cell growth assay (MTS), non-tumorigenic hTERT-RPE-1 cells; assay type: cell-based; details: the maximum concentration used in the MTS assay is reported, read-out: h‐TERT‐RPE‐1 (IC50)
# Procedure: as §1, §2
# 1‐7HB2 cells = experiment: Cell growth assay (MTS), non-tumorigenic 1-7HB2 cells; assay type: cell-based; details: 72 h, the maximum concentration used in the MTS assay is reported
# Procedure: as §1, §2
# HL‐60R cells [1] = experiment: Cell growth assay (MTS), HL-60R MDR variant; assay type: cell-based; details: 72 h of treatment, mean ± SE
# Procedure: as §1, §2
# HL‐60R cells [2] = experiment: Viable cell count with Trypan blue exclusion test (cotreatments); assay type: cell-based; details: for synergistic / potentiation effect with the reference drugs (VIN or PTX): cotreatment at sub-cytotoxic concentrations
# Procedure: Potentiation or synergism due to cotreatments were evaluated by viable cell count with Trypan blue exclusion test. Data were expressed as mean ± SE of at least three different experiments performed in duplicate.
# HL‐60R cell line = experiment: Intracellular accumulation of doxorubicin (flow cytometry); assay type: cell-based
# Procedure: The effects of 4e and 4k on intracellular accumulation of doxorubicin were evaluated in the HL‐60R cell line. […] After 24 h of incubation doxorubicin 2 µM was added for 1 h. The cells were subsequently washed with PBS twice and then resuspended in a final volume of 400 µl of PBS. The fluorescence intensity of doxorubicin was measured by flow cytometry using a FACSAria III instrument (Becton Dickinson).
# tubulin in HL‐60 cells = experiment: Tubulin polymerization assay (soluble/polymerized fraction, western blot), HL-60; assay type: cell-based; details: HL-60, 24 h at the IC50 at 72 h
# Procedure: (§3) To separate cytosolic and cytoskeletal‐associated proteins, cells were rinsed in PEM buffer (0.1 M PIPES, pH 6.94; 2 mM EGTA; 1 mM MgCl2; 10% glycerol; 1 µM protease inhibitors cocktail; 0.5% Nonidet NP‐40), lysed at room temperature for 10 min with the same buffer (200 µl). After centrifugation (14,000 rpm at 4°C for 10 min), the soluble fraction (supernatant) was separated from polymerized fraction (pellet); the latter was resuspended in the same buffer (200 µl).
# (§4) Both the fractions were then diluted 3:1 with 4 × SDS‐PAGE sample buffer. Proteins were separated by SDS‐PAGE, and tubulin distribution was analyzed by immunoblotting using anti‐α‐tubulin antibody (Sigma‐Aldrich). Hybridization was visualized using an enhanced chemiluminescence detection kit (SuperSignal West Femto Maximum Sensitivity Substrate, Thermo Scientific Life Technologies Italia) and the Versa DOC imaging system (BioRad Laboratories).
# HL‐60R cells [3] = experiment: Cell death by flow cytometry (propidium iodide, preG0-G1 events); assay type: cell-based
# Procedure: Cells were collected and washed twice with ice‐cold PBS and then resuspended in a hypotonic fluorochrome solution containing propidium iodide (PI) 50 µg/ml in 0.1% sodium citrate plus 0.03% (v/v) Nonidet P‐40, at 1 × 10^6/ml. After incubation (at least 1 h at 4°C) in this solution, the samples were filtered through nylon cloth, 40 µm mesh, and their fluorescence was analyzed using a FACSCanto instrument (Becton Dickinson). The data were analyzed with BD FACSDiva software v.6.1.2. (Becton Dickinson). Cell death was determined by evaluating the percentage of events accumulated in the preG0‐G1 position.
# tubulin in HL‐60R cells = experiment: Tubulin polymerization assay (soluble/polymerized fraction, western blot), HL-60R; assay type: cell-based; details: 24 h at the IC50 at 72 h
# Procedure: as §3, §4
# [4] = test system: XIAP, IAP‐1, Bcl‐2 in HL‐60R cells; experiment: Western blot of antiapoptotic factors (survivin, XIAP, IAP-1, Bcl-2); assay type: cell-based; details: co-treatment of 4k and PTX
# Procedure: Whole‐cell lysates were obtained from HL‐60R cells using RIPA buffer (Santa Cruz Biotechnology Inc.) and 25 µg protein was subjected to 10% SDS‐PAGE and transferred to nitrocellulose membrane (Amersham, Pharmacia Biotech) using a semi‐dry fast blot apparatus (Bio‐Rad). Membranes were blocked with 5% (w/v) BSA in PBS‐0.1% (v/v) Tween 20 for 1 h and then filters were incubated with primary antibodies raised against GAPDH (1:20,000; Sigma‐Aldrich Srl Milan), XIAP (1:500; Cell Signaling Technology, Inc), survivin (1:2000; Abcam Limited), Bcl‐2 (1:1000; Santa Cruz Biotechnology Inc.) and IAP‐1 (1:1000; Cell Signaling Technology, Inc). Hybridization was visualized using an enhanced chemiluminescence detection kit (SuperSignal West Femto Maximum Sensitivity Substrate, Thermo Scientific Life Technologies Italia) and the Versa DOC imaging system (BioRad Laboratories). Immunoblots were quantified by densitometry measurements after normalization with glyceraldehyde‐3‐phosphate dehydrogenase and results were expressed as fold changes.
# [5] = molecular target: T1, recombinant human P‐gp membranes (Homo sapiens, UniProt P08183); experiment: P-gp ATPase activity (Pgp-Glo assay); assay type: biochemical; details: compound at its IC50; verapamil 0.5 mM
# T1 construct: purchased Promega
# T1 sequence (P08183 whole entry): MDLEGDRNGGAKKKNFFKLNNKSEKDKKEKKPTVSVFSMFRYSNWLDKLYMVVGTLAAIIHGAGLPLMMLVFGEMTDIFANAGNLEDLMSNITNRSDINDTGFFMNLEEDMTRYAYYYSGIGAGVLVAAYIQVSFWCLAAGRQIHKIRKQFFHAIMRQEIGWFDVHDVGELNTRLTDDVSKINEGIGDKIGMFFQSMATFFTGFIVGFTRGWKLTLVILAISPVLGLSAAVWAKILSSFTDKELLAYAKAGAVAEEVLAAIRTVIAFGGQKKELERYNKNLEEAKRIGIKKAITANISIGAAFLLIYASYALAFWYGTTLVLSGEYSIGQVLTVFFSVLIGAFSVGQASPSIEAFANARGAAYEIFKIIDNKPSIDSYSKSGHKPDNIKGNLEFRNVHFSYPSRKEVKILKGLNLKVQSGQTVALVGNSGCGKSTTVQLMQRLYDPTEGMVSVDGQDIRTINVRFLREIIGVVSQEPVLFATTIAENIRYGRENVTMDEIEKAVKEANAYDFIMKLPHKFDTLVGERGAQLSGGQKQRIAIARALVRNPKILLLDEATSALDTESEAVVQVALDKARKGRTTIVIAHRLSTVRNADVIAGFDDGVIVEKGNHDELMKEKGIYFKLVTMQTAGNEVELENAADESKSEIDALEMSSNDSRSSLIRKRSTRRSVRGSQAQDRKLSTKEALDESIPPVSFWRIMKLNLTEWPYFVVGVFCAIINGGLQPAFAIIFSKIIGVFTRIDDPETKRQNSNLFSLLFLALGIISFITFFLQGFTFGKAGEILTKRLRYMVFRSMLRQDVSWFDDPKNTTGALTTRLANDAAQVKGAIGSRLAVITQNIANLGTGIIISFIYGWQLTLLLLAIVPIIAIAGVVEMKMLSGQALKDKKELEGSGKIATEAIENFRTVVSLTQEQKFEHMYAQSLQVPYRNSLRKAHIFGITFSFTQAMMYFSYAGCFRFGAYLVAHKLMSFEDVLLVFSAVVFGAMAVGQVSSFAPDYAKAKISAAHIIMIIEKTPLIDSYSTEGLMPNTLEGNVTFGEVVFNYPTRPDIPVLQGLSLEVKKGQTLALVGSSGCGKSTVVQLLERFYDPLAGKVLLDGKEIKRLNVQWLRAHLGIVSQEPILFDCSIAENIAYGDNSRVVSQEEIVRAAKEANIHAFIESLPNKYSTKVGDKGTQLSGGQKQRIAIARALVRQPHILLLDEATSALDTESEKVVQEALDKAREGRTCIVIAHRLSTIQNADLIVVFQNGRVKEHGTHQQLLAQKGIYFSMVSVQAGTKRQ
# Procedure: P‐gp ATPase activity was performed with Pgp‐Glo™ Assay Systems (Promega) following manufacturer's instructions. The compounds 4e and 4k, at their IC50s (test compound [TC]) were added to a 96‐well white plate in duplicate and incubated with recombinant human P‐gp membranes. The compound Na3VO4 (0.25 mM) was used as the selective inhibitor of P‐gp ATPase activity while negative control (no treatment [NT]) with only Pgp‐GLO assay buffer was used to provide a measure of unregulated ATPase activity. Verapamil (0.5 mM) is a P‐gp substrate that stimulates P‐gp ATPase activity and represents the positive control for drug stimulation of P‐gp ATPase activity. In fact, it is not a pure inhibitor of P‐gp function as well as Na3VO4, but in association with another P‐gp substrate like doxorubicin, it behaves as a competitive antagonist, that is, an efflux inhibitor. […]
# Luminescence was measured using a GLOMAX Multidetection System (Promega). The data were presented as change in luminescence (ΔRLU), calculated as follows: ΔRLUbasal is the difference between the average luminescent signals from Na3VO4‐treated samples (RLUNa3VO4) and untreated (NT) samples (RLUNT), ΔRLUTC that reflects P‐gp ATPase activity in the presence of the test compounds, is the difference between the average luminescent signals from Na3VO4‐treated samples (RLUNa3VO4) and test compound‐treated samples (RLUTC).
# [6] = Homo sapiens, HL-60, 72 h of treatment
IC50 (HL‐60 cells; 72 h of treatment) [µM],IC50 (MCF‐7 cells; 72 h) [µM],IC50 (HL‐60R cells [1]) [µM],IC50 (HL‐60 cells; [6]) [µM],IC50 (HL‐60R cells [1]; HL60R) [µM],Structure (SMILES),IC50 (hTERT‐RPE‐1 cells; 72 h) [µM],IC50 (1‐7HB2 cells) [µM],synergistic / potentiation effect with the reference drugs (VIN or PTX) (HL‐60R cells [2]),also measured
0.6 ± 0.01,> 50,0.7 ± 0.09,,,COc1ccc(Cn2cc3c(c2)-c2oncc2CC3)cc1OC [4d],> 5,> 5,,
1.9 ± 0.9,> 50,2.1 ± 0.2,,,c1ccc(Cn2cc3c(c2)-c2oncc2CC3)cc1 [4a],> 20,> 20,synergistic effect,"Cell growth inhibition (%) (HL‐60R cells [2]; 48 h, alone at 1 µM): 2.5 ± 1.8%"
,> 5,,,,COc1cc(Cn2cc3c(c2)-c2oncc2CC3)cc(OC)c1OC [4e],> 0.1,> 0.1,not detected any potentiation,"Fluorescence (%) HL‐60R (HL‐60R cell line; 0.04 µM for 24 h, without doxorubicin): 0.2 ± 0.07%; Fluorescence (%) HL‐60R (intracellular accumulation of doxorubicin) (HL‐60R cell line; pretreated 0.04 µM for 24 h + Doxo 2 µM 1 h): 8.8 ± 0.3 %"
,> 50,,,,COc1cccc(Cn2cc3c(c2)-c2oncc2CC3)c1 [4c],> 5,> 5,synergistic effect,"Cell growth inhibition (%) (HL‐60R cells [2]; 48 h, alone at 0.2 µM): 42.5 ± 0.3%"
2.1 ± 0.4,> 50,2.4 ± 0.8,,,COc1ccccc1Cn1cc2c(c1)-c1oncc1CC2 [4b],> 20,> 20,,
,,,3 ± 0.25,5.5 ± 1.4,"COc1ccc(Cn2cc3c(c2-c2cc(OC)c(OC)c(OC)c2)CCc2cnoc2-3)cc1OC [4k, 7‐(3,4‐dimethoxybenzyl)−6‐(3,4,5‐trimethoxyphenyl)−5,7‐dihydro‐4H‐[1,2]oxazolo[5,4‐e]isoindole]",,> 20,synergistic effect,"protein expression of antiapoptotic factors XIAP, IAP‐1 and Bcl‐2 [4]: substantial protein expression decrease; effect on soluble / polymerized tubulin fraction (tubulin in HL‐60 cells): increasing the soluble fraction of tubulin; effect on verapamil‐stimulated P‐gp ATPase activity [5]: significative increase; IC50 (MCF‐7 cells; Homo sapiens, MCF7, 72 h): > 50 µM; IC50 (hTERT‐RPE‐1 cells; hTERT-RPE1, 72 h): > 20 µM; synergistic effect in induction of cell death (HL‐60R cells [3]; HL-60R, in combination with PTX and VIN): strong synergistic effect; effect on soluble / polymerized tubulin fraction (tubulin in HL‐60R cells): increasing the soluble fraction of tubulin; Fluorescence (%) HL‐60R (HL‐60R cell line; 5.50 µM for 24 h, without doxorubicin): 0.3 ± 0.1%; Fluorescence (%) HL‐60R (intracellular accumulation of doxorubicin) (HL‐60R cell line; pretreated 5.50 µM for 24 h + Doxo 2 µM 1 h): 22.5 ± 1.1 %"

# More lines, now with the values behind:
Structure (SMILES),IC50 (HL‐60 cells; 72 h of treatment) [µM],IC50 (MCF‐7 cells; 72 h) [µM],IC50 (HL‐60R cells [1]) [µM],IC50 (HL‐60 cells; [6]) [µM],IC50 (HL‐60R cells [1]; HL60R) [µM],IC50 (hTERT‐RPE‐1 cells; 72 h) [µM],IC50 (1‐7HB2 cells) [µM],synergistic / potentiation effect with the reference drugs (VIN or PTX) (HL‐60R cells [2]),also measured
"COc1ccc(CCN(C)CCCC(C#N)(c2ccc(OC)c(OC)c2)C(C)C)cc1OC (stereo not drawn) [Verapamil, reference compound]",,,,,,,,,"Fluorescence (%) HL‐60R (HL‐60R cell line; 10 µM for 24 h, without doxorubicin): 0.3 ± 0.1%; Fluorescence (%) HL‐60R (intracellular accumulation of doxorubicin) (HL‐60R cell line; pretreated 10 µM for 24 h + Doxo 2 µM 1 h): 58.5 ± 2.5 %"
"COc1cccc2c1C(=O)c1c(O)c3c(c(O)c1C2=O)C[C@@](O)(C(=O)CO)C[C@@H]3O[C@H]1C[C@H](N)[C@H](O)[C@H](C)O1 [Doxorubicin, doxorubicin, reference compound]",,,,,,,,,"Fluorescence (%) HL‐60R (HL‐60R cell line; Doxo 2 µM 1 h alone): 4.4%; Fluorescence (%) HL‐60R (HL‐60R cell line; Doxo 2 µM 1 h alone, listed as Doxo): 4.4 ± 0.3%"
"CC(=O)O[C@H]1C(=O)[C@@]2(C)[C@H]([C@H](OC(=O)c3ccccc3)[C@]3(O)C[C@H](OC(=O)[C@H](O)[C@@H](NC(=O)c4ccccc4)c4ccccc4)C(C)=C1C3(C)C)[C@]1(OC(C)=O)CO[C@@H]1C[C@@H]2O [Paclitaxel, reference compound]",,,,0.02 ± 0.04,1.3 ± 0.14,,,,"inhibition at 1 µM (HL‐60R cells [2]; HL60R, 48 h, alone at 1 µM, read-out: Cell growth inhibition (%)): 13 ± 9.2%; effect on soluble / polymerized tubulin fraction (tubulin in HL‐60 cells): marked increase in the polymerized fraction; Percentage of events accumulated in the pre G0‐G1 position (cell death) (HL‐60R cells [3]; 48 h, 1 µM): 7.6%; effect on soluble / polymerized tubulin fraction (tubulin in HL‐60R cells): marked increase in the polymerized fraction"
"CC[C@]1(O)C[C@@H]2CN(CCc3c([nH]c4ccccc34)[C@@](C(=O)OC)(c3cc4c(cc3OC)N(C)[C@H]3[C@@](O)(C(=O)OC)[C@H](OC(C)=O)[C@]5(CC)C=CCN6CC[C@]43[C@@H]65)C2)C1 [Vinblastine, reference compound]",,,,0.05,0.82 ± 0.02,,,,"inhibition at 0.3 µM (HL‐60R cells [2]; HL60R, 48 h, alone at 0.3 µM, read-out: Cell growth inhibition (%)): 0%"

# Source: PMC9540667, “Novel insights on [1,2]oxazolo[5,4‐e]isoindoles on multidrug resistant acute myeloid leukemia cell line” (Drug Development Research, 2022)
